# In patent publication US8552015B2, “Quinazolinone derivatives and their use as CB agonists” (Novartis AG, priority 2002, dated 2013):
# Counter-ions that a name gives are not always drawn.
# Assays:
# [1] = test system: neuropathic pain induced by partial ligation of the sciatic nerve; assay: Test III: Neuropathic pain model (partial ligation of the sciatic nerve, mechanical hyperalgesia); type: in vivo, Wistar-rats; conditions: p.o.; dose necessary to produce 50% reversal of hyperalgesia
# Excerpt: Activity specifically as analgesic agents may be confirmed in accordance with standard test methods, e.g. as described in the following test. • Test III: Neuropathic Pain Model
# Hyperalgesia is examined in the model of neuropathic pain induced by partial ligation of the sciatic nerve as described by Seltzer et al. (1990). Briefly, Wistar-rats (120-140 g) are anaesthetised, the left sciatic nerve exposed at mid-thigh level through a small incision and ⅓ to ½ of the nerve thickness tightly ligated within a 7.0 silk suture. The wound is closed with a single muscle suture and skin clips and dusted with Aureomycin antibiotic powder. The animals are allowed to recover and used 12-15 days following surgery.
# Mechanical hyperalgesia is assessed by measuring paw withdrawal thresholds to an increasing pressure stimulus placed onto the dorsal surface of the paw using an analgesymeter (Ugo-Basile, Milan) with a cut-off of 250 g. Withdrawal thresholds are measured on both the ipsilateral (ligated) and contralateral (unligated) paw prior to (predose) and then up to 6 h following drug or vehicle administration. Data are expressed as withdrawal threshold (g) and percentage reversal of hyperalgesia calculated according to the following formula:
# [formula] • Potency is expressed as D50 value, i.e. the dose of compound necessary to produce 50% reversal of hyperalgesia.
# hCB1 receptor [2] = target: T1, hCB1 receptor (Homo sapiens, UniProt P21554); assay: Test I: CB1 receptor binding assay ([3H]CP55940 displacement); set-up: purchased Receptor Biology, Beltsville, Md; host or cells: HEK293 cells (transfected), membrane preparation; conditions: membranes from HEK293 cells, Ki from IC50 by Cheng-Prussoff
# Experimental: More particularly the agents of the invention are active at the human CB1 and CB2 receptor.
# (§1) The assay mixture comprises 75 μL of membrane suspension [membranes from HEK293 cells transfected with human CB1 receptors from Receptor Biology, Beltsville, Md.; 133 μg/mL in assay buffer (50 mM Tris-HCl, 2.5 mM EDTA, 5 mM MgCl2 5 mg/mL BSA, pH7.4), approx, 10 μg/well)], 25 μL WGA-YS beads [Yttrium silicate beads coated with wheat germ agglutinin, Amersham (40 mg/mL, 1 mg/well)], 50 μL test compound in 4% DMSO and 50 μL radioligand {[^3H]CP55940 (180 Ci/mmol), New England Nuclear; final concentration 0.125 nM, in assay buffer}. All components are mixed, shaken at room temperature for 2 hours, then counted on a Topcount. Non-saturable binding is measured in the presence of 10 μM (R)-(+)-[2,3-dihydro-5-methyl-3-[(4-morpholinyl)methyl]pyrrolo[1,2,3-de]-1,4-benzoxazin-6-yl](1-naphthalenyl)methanone (WIN55,212-2, Tocris).
# The IC50 values are calculated in ORIGIN using a logistic fit. Ki values are calculated from the IC50 values using the Cheng-Prussoff equation (Ki=IC50/(1+([L]/Kd)) where [L] is the ligand concentration. • Test II: CB2 Receptor Binding Assay
# human CB2 receptors = target: T2, human CB2 receptors (Homo sapiens, UniProt P34972); assay: Test II: CB2 receptor binding assay ([3H]CP55940 displacement); conditions: membranes from CHOK1 cells, Ki from IC50 by Cheng-Prussoff
# T2 construct: purchased Receptor Biology, Beltsville, Md; host or cells: CHOK1 cells (transfected), membrane preparation
# Experimental: as §1, with “CHOK1” for “HEK293”, “CB2” for “CB1”, “mg/well)),” for “mg/well)],”, “(R)-(+)-[2,3-d]hydro-5-methyl-3-[(4-morpholinyl)methyl]pyrrolo[1,2,3-de]-1,4-benzoxazin-6-yl](1-naphthalenyl)methanone” for “(R)-(+)-[2,3-dihydro-5-methyl-3-[(4-morpholinyl)methyl]pyrrolo[1,2,3-de]-1,4-benzoxazin-6-yl](1-naphthalenyl)methanone”
# The IC50 values are calculated in ORIGIN using a logistic fit. Ki values are calculated from the IC50 values using the Cheng-Prussoff equation (Ki=IC50/(1+([L]/Kd)) where [L] is the ligand concentration.
# hCB1 receptor [3] = target: T1, hCB1 receptor; assay: Test IV: CB1 functional assay ([35S]GTPγS binding); type: biochemical; set-up: purchased Receptor Biology Inc RBhCB1 382200; host or cells: HEK293 cells, membrane preparation; conditions: hCB1 receptor membrane (HEK293 cells)
# Experimental: G-protein activation is used as a functional measure of receptor-ligand association for G-protein coupled receptors. The basic mechanism behind G-protein activation is the exchange of bound guanosine 5′-diphosphate (GDP) for guanosine 5′-triphosphate (GTP). Using a radioactive, non-hydrolyzable form of GTP, such as guanosine 5′-O-(3-[^35S]thiophosphate ([^35S]GTPγS), G-protein activation is assessed by measuring the accumulation of membrane-bound radioactivity in response to receptor activation.
# The plate is sealed with a topseal A cover and vortexed for 2 minutes. The plate is incubated at room temperature for 60 min., centrifuged (Beckman 6JB) at 800 g for 5 minutes and counted on a Topcount for 3 minutes.
# Non-specific binding is determined using 10 μM GTPγS, and this is subtracted from all values. Basal binding is assayed in the absence of agonist and in the presence of GDP. The stimulation by agonist is defined as a percentage increase above basal levels, i.e., {[cpm(agonist)−cpm(no agonist)]/cpm(no agonist)}×100
# Data are reported as mean ±S.E.M. of one to six experiments performed in triplicate. Non-linear regression analysis of concentration-response data is performed using Origin version 5, (logistics algorithm; Microcal Software Inc. MA, USA) to calculate percentage maximal effect (Emax, %) and EC50 (nM) values. […]
# T1 sequence (P21554 whole entry): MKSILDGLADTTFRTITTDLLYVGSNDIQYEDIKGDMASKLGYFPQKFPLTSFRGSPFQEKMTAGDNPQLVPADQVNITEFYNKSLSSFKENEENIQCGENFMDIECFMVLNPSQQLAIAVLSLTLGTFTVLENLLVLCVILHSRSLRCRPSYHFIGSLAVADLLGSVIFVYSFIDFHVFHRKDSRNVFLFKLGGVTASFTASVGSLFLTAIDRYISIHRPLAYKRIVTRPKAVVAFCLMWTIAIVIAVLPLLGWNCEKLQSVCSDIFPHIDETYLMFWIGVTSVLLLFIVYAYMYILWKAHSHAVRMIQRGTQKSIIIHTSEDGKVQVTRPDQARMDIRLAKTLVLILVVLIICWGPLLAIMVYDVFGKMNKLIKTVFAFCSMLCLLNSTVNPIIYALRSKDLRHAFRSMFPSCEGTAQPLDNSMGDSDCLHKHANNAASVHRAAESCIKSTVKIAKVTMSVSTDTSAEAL
# T2 sequence (P34972 whole entry): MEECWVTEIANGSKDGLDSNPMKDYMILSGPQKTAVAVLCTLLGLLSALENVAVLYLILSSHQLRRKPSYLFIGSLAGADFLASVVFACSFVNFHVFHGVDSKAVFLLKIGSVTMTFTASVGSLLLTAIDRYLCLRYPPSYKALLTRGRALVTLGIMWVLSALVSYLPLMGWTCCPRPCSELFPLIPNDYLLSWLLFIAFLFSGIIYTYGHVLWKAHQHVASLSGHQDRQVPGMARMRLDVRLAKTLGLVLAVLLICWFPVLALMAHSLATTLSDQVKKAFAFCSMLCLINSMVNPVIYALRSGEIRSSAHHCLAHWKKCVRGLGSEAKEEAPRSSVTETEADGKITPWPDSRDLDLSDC
melting point,SMILES,D50 value in the neuropathic pain model of test III [1],Ki (hCB1 receptor [2]),Ki (human CB2 receptors),EC50 (hCB1 receptor [3])
,"CCOC(=O)c1c(C)cc2nc(COC(=O)NCCO)n(-c3ccccc3S(=O)(=O)NC)c(=O)c2c1C [Example 2, 2-(2-Hydroxy-ethylcarbamoyloxymethyl)-5,7-dimethyl-3-(2-methylsulfamoyl-phenyl)-4-oxo-3,4-dihydro-quinazoline-6-carboxylic acid ethyl ester]",0.5 mg/kg,0.034 ± 0.003 µM,0.011 ± 0.0035 µM,0.132 ± 0.019 µM
126 to 130 °C,CCNC(=O)OCc1nc2cc(C)c(C(=O)OCC)c(C)c2c(=O)n1-c1ccccc1S(=O)(=O)NC (as salt: hydrochloride),,,,
